Data on 14 compounds can be found in ChEMBL document CHEMBL4619812, “Discovery of Potent and Orally Available Bicyclo[1.1.1]pentane-Derived Indoleamine-2,3-dioxygenase 1 (IDO1) Inhibitors” (ACS Med Chem Lett, 2020).

For orientation: IC50 means the point on the concentration scale where inhibition reaches its midpoint. By clearance is commonly meant the rate of elimination divided by the concentration. A word on the Papp: it is a coefficient for how fast a substance crosses the barrier. As a reminder, the IC90 is the concentration at which the effect reaches the 90% level. As a reminder, the EC50 is the midpoint of the concentration-response curve. Usually efflux ratio stands for the permeability from basolateral to apical divided by that in the opposite direction, in the common usage.

Data set [1] can be described thus: Unbound intrinsic clearance in human hepatocytes. The data set is classed as ADME, cell-based, Hepatocyte.
A short description of data set [2]: Unbound intrinsic clearance in rat hepatocytes. The data set is classed as ADME, cell-based, Hepatocyte.
Data set [3] deals with Tryptophan 2,3-dioxygenase (Homo sapiens, UniProt P48775). Kind of data set: Inhibition of TDO in human SW48 cells using L-tryptophan as substrate incubated for 48 hrs by fluorescent microplate reader assay. Type of data set: cell-based.
The nature of data set [4]: Clearance in rat. Type of data set: ADME. The settings on record: in vivo.
Data set [5] can be described thus: Oral bioavailability in rat. Type of data set: ADME, organism-based. To be noted: in vivo.
Data set [6] in a line: Elimination half life in rat. To be noted: in vivo, read-out: beta t1/2 (converted). Type of data set: ADME.
Data set [7] is described as follows: Apparent permeability in MDCK2 cells. The data set is classed as ADME, cell-based, Canis lupus familiaris, MDCK-II. The settings on record: dog, MDCK.
Data set [8] in a line: Unbound clearance in rat. Type of data set: ADME. To be noted: in vivo.
Data set [9] is described as follows: Clearance in dog. To be noted: in vivo. The data set is classed as ADME, Canis lupus familiaris.
The target of the next data set is CYP450 (Homo sapiens, UniProt P04798+P05177+P05181+P08684+P10632+P10635+P11509+P11712+P13584+P20813+P20815+P20853+P24462+P24903+P33260+P33261+P51589+P78329+P98187+Q02928+Q08477+Q16678+Q16696+Q5TCH4+Q6VVX0+Q7Z449+Q8TAV3+Q96SQ9+Q9HB55). Description: Inhibition of CYP450 (unknown origin). Type of data set: ADME, protein assay.
Data set [10] in a line: Elimination half life in dog. The settings on record: in vivo, read-out: beta t1/2 (converted). The data set is classed as ADME, Canis lupus familiaris.
The target in data set [11] is Indoleamine 2,3-dioxygenase 1 (Homo sapiens) (UniProt P14902). To be noted: Blood.
Description: Inhibition of IDO1 in human whole blood stimulated with IFNgamma/LPS using L-tryptophan/kynurenine as substrate incubated for 15 mins prior to IFNgamma/LPS stimulation and further incubated for 18 hrs followed by isotope labeled L-tryptophan/kynurenine addition on day 2 by LC/MS-MS analysis
Data set [12] can be described thus: Unbound intrinsic clearance in dog hepatocytes. The data set is classed as ADME, cell-based, Canis lupus familiaris, Hepatocyte.
The target of data set [13] is T1, Nuclear receptor subfamily 1 group I member 2 (Homo sapiens, UniProt O75469).
T1 sequence (O75469 whole entry): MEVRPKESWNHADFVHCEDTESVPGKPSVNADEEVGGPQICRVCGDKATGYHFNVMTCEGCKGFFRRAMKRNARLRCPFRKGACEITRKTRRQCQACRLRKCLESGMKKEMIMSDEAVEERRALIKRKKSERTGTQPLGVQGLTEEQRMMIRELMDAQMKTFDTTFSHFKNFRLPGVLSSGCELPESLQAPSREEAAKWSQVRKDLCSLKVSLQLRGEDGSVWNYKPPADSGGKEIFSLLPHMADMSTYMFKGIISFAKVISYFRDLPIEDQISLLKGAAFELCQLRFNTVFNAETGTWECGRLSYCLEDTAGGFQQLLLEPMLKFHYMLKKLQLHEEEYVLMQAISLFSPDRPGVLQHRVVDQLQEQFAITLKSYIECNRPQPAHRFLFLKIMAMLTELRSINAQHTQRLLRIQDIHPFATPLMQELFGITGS
Kind of data set: Activation of PXR (unknown origin).

Data set [14] concerns the target MDR1 (ABCB1, P-glycoprotein) (Homo sapiens, UniProt P08183). Description: Substrate activity at human MDR1 expressed in pig LLC-PK1 cells assessed as efflux ratio of permeability across basolateral to apical over apical to basolateral membrane at 1 mM after 3 hrs by LC/MS/MS analysis. Set-up: dose or concentration left out as unconfirmed.
The nature of data set [15]: Unbound clearance in dog. The data set is classed as ADME, Canis lupus familiaris. To be noted: in vivo.
For the next data set, the target named is CYP3A4 (Homo sapiens, UniProt P08684). Description: Inhibition of CYP3A4 (unknown origin) assessed as TDI shift ratio.
Data set [16] is described as follows: Oral bioavailability in dog. Type of data set: ADME, organism-based, Canis lupus familiaris. To be noted: in vivo.

Bounds are passed on as bounds.

Sequence of Tryptophan 2,3-dioxygenase (P48775 whole entry): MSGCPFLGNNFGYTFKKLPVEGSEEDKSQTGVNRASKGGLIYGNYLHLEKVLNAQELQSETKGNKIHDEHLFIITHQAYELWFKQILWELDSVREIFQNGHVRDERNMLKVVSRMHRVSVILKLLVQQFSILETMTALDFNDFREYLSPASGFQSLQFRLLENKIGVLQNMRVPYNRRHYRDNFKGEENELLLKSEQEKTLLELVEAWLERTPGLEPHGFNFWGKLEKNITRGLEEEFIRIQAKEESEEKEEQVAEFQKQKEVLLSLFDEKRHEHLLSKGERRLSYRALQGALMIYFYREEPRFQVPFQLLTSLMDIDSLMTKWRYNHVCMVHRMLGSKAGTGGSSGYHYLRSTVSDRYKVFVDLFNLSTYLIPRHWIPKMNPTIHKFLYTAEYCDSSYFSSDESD
Sequence of MDR1 (ABCB1, P-glycoprotein) (P08183 whole entry): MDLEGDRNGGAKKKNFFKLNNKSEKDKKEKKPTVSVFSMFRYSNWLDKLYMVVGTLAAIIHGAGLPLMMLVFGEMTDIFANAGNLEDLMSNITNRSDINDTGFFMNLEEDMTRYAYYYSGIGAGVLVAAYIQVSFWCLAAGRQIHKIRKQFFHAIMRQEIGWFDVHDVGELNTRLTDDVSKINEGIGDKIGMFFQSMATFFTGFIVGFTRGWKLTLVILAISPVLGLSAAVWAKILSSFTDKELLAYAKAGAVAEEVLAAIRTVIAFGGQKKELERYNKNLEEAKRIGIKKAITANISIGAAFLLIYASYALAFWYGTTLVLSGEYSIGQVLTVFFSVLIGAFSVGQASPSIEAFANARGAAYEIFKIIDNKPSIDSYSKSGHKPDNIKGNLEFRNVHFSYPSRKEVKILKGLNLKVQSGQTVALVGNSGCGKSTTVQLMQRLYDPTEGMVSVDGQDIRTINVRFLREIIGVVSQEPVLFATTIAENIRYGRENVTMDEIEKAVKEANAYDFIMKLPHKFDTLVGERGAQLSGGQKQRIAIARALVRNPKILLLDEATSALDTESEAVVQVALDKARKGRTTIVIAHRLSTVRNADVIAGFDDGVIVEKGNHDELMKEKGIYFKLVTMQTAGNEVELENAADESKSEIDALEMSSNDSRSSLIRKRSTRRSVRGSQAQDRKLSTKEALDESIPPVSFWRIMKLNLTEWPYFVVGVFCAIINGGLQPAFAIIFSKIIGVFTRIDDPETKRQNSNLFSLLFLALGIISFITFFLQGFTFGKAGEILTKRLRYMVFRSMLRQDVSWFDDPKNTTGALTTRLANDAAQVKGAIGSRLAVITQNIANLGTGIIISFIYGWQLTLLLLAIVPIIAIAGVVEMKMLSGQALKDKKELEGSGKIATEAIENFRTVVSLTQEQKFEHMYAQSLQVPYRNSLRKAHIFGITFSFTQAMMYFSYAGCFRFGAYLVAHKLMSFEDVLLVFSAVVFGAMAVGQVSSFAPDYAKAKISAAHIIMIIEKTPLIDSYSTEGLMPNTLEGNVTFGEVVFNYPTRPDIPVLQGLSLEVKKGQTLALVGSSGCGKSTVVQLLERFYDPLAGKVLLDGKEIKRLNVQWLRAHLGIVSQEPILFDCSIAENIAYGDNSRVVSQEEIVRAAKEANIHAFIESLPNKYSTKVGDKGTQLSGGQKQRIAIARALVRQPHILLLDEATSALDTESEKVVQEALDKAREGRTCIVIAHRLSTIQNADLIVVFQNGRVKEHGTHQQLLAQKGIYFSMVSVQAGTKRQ
Sequence of CYP3A4 (P08684 whole entry): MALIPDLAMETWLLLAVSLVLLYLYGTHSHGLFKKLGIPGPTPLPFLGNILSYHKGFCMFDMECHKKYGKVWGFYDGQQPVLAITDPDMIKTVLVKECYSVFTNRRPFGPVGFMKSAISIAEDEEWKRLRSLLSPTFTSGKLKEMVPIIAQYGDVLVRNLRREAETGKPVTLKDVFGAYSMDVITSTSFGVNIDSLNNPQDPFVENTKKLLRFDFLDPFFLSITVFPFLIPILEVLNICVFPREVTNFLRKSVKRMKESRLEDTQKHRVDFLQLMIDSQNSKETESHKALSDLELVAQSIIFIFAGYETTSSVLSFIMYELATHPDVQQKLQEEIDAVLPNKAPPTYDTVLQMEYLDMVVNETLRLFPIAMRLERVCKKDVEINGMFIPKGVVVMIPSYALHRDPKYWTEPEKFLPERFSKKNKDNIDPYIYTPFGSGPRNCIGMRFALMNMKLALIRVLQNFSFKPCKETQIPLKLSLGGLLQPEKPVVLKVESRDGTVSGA
Sequence of Indoleamine 2,3-dioxygenase 1 (Homo sapiens) (P14902 whole entry, looked up): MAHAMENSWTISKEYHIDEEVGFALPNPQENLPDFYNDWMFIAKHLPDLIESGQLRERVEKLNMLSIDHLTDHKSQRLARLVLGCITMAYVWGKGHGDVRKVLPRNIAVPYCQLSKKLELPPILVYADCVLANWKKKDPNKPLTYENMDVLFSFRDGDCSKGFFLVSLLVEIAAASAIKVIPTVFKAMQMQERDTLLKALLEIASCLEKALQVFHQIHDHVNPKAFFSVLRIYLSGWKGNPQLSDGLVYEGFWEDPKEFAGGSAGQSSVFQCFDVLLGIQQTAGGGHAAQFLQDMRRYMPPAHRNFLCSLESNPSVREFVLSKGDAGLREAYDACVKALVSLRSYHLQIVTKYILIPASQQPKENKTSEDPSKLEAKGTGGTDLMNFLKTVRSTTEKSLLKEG

For `C[C@H](C(=O)Nc1ccc(F)cc1)C12CC(NC(=O)c3cccc(Cl)c3F)(C1)C2`, the CL free in data set [1] amounted to 591 mL/min/kg; in data set [2] it was 765 mL/min/kg.
`C[C@H](C(=O)Nc1ccc(F)cc1)C12CC(NC(=O)c3cccc(Cl)c3)(C1)C2`: the IC50 in data set [3] was over 10 µM. Besides, the clearance in [4] amounted to 5 mL/min/kg. In data set [5], the bioavailability came to 110%. In data set [6], the half-life is 222 min. Besides, the CL free in data set [1] was 48 mL/min/kg; in data set [2], 247 to 248 mL/min/kg; in data set [8] it was 194 mL/min/kg. The Papp in data set [7] amounted to 32 ×10⁻⁶ cm/s.
`C[C@H](C(=O)Nc1ccc(F)cc1)C12CC(NC(=O)OC3CCCC3)(C1)C2`: the CL free in data set [1] is 2357 mL/min/kg; in [2], 4457 mL/min/kg.
With `C[C@H](C(=O)Nc1ccc(F)cc1)C12CC(Nc3ncnc4ccc(F)cc34)(C1)C2`, the CL free in [1] is 723 mL/min/kg; in data set [2], 549 mL/min/kg.
The corresponding values for `C[C@H](C(=O)Nc1ccc(F)cc1)C12CC(NC(=O)c3ccc(F)c(Cl)c3)(C1)C2` are 56 mL/min/kg and 295 mL/min/kg.
On to `CC(C)OC(=O)NC12CC([C@H](C)C(=O)Nc3ccc(F)cc3)(C1)C2`, for which the CL free came out at 369 mL/min/kg in data set [1] and 2925 mL/min/kg in [2].
With `CC(C)(C(=O)Nc1ccc(F)cc1)C12CC(NC(=O)c3cccc(Cl)c3)(C1)C2`, the values for the CL free in data set [1] and in data set [2] were 51 mL/min/kg and 197 mL/min/kg, respectively.
As for `O=C(Nc1ccc(C2(C(=O)Nc3ccc(F)cc3)CCC2)cc1)c1cccc(Cl)c1`, the figures for the CL free in data set [2] and in data set [8] were 1935 mL/min/kg and 4371 mL/min/kg, respectively.
As for `C[C@H](C(=O)Nc1ccc(F)cc1)C12CC(NC(=O)c3ccc(F)c(F)c3)(C1)C2`, the IC50 in data set [3] was over 10 µM; on CYP450 it was over 50 µM. In addition, the clearance in data set [9] was 1.1 mL/min/kg; in data set [4], 2 mL/min/kg. In addition, the figures for the bioavailability in data set [5] and in data set [16] were 83% and 79%, respectively. Also, the half-life in data set [6] was 660 min; in data set [10], 2160 min. The compound also yielded an IC90 in [11] of 912 nM. Besides, the CL free in data set [1] stood at 52 mL/min/kg; in [2] it was 195 mL/min/kg; in data set [12], 121 mL/min/kg; in data set [15] it was 22 mL/min/kg; in data set [8] it was 37 mL/min/kg. The compound also yielded an EC50 in data set [13] of over 30 µM. In data set [14], the efflux ratio at 3 h stood at 1.3. Besides, the IC50 shift on CYP3A4 came out at 1. Moreover, the Papp in data set [7] worked out at 29 ×10⁻⁶ cm/s.
For `C[C@H](C(=O)Nc1ccc(Cl)nc1)C12CC(NC(=O)c3cccc(Cl)c3)(C1)C2`, the CL free in data set [1] came out at 34 mL/min/kg; in data set [2], 133 mL/min/kg.
`C[C@H](C(=O)Nc1ccc(Cl)cc1)C12CC(NC(=O)c3cccc(Cl)c3)(C1)C2`: the CL free was determined as 47 mL/min/kg in [1] and 150 mL/min/kg in data set [2].
Consider `C[C@H](C(=O)Nc1ccc(F)cc1)C12CC(NC(=O)c3cccc(Cl)n3)(C1)C2`, for which the results for the CL free in data set [1] and in data set [2] were 82 mL/min/kg and 644 mL/min/kg, respectively.
In the case of `C[C@H](C(=O)Nc1ccc(F)cc1)C12CC(NC(=O)c3cc(F)cc(Cl)c3)(C1)C2`, the CL free in data set [1] was determined as 56 mL/min/kg; in data set [2] it was 441 mL/min/kg.
As for `C[C@H](C(=O)Nc1ccc(F)cc1)C12CC(Nc3ncnc4ccccc34)(C1)C2`, the CL free turned out to be 1544 mL/min/kg in [1] and 1494 mL/min/kg in data set [2].
